# Data as given in patent publication US7265120B2, “Pyrazine derivatives and pharmaceutical use thereof” (Astellas Pharma Inc., priority 2004, dated 2007).
structure (smiles),measurement,value
CC(C)n1nc(-c2nc(C#C[Si](C)(C)C)c(N)nc2-c2ccccc2)ccc1=O,melting point,213 to 215 °C
CC(C)n1nc(-c2nc(C3=CCN(C)CC3)c(N)nc2-c2ccccc2)ccc1=O,melting point,209 to 211 °C
"CC(C)n1nc(-c2ncc(O)nc2-c2ccccc2)ccc1=O [Example 1, 6-(5-hydroxy-3-phenyl-2-pyrazinyl)-2-isopropyl-3(2H)-pyridazinone]",melting point,225 to 227 °C
"Cc1nc(-c2ccc(=O)n(C(C)C)n2)c(-c2ccccc2)nc1O [Example 2, 6-(5-Hydroxy-6-methyl-3-phenyl-2-pyrazinyl)-2-isopropyl-3(2H)-pyridazinone]",melting point,> 250 °C
"Cc1nc(-c2ccc(=O)n(C(C)C)n2)c(-c2ccccc2)nc1N [Example 3, 6-(5-amino-6-methyl-3-phenyl-2-pyrazinyl)-2-isopropyl-3(2H)-pyridazinone]",melting point,208 to 209.5 °C
"CC(C)n1nc(-c2nc(C#N)c(C#N)nc2-c2ccccc2)ccc1=O [Example 4, 5-(1-isopropyl-6-oxo-1,6-dihydro-3-pyridazinyl)-6-phenyl-2,3-pyrazinedicarbonitrile]",melting point,201 to 202 °C
"CC(C)n1nc(-c2nc(C#N)c(N)nc2-c2ccccc2)ccc1=O [Example 6, 3-amino-6-(1-isopropyl-6-oxo-1,6-dihydro-3-pyridazinyl)-5-phenyl-2-pyrazinecarbonitrile]",melting point,231 to 233 °C
"CC(C)n1nc(-c2nc(C(N)=O)c(N)nc2-c2ccccc2)ccc1=O [Example 7, 3-amino-6-(1-isopropyl-6-oxo-1,6-dihydro-3-pyridazinyl)-5-phenyl-2-pyrazinecarboxamide]",melting point,224 to 226 °C
"CC(C)n1nc(-c2nc(C(=O)O)c(N)nc2-c2ccccc2)ccc1=O [Example 8, 3-amino-6-(1-isopropyl-6-oxo-1,6-dihydro-3-pyridazinyl)-5-phenyl-2-pyrazinecarboxylic acid]",melting point,233 to 235 °C
"CC(C)n1nc(-c2ncc(N)nc2-c2ccccc2)ccc1=O [Example 9, 6-(5-amino-3-phenyl-2-pyrazinyl)-2-isopropyl-3(2H)-pyridazinone]",melting point,204 to 206 °C
"CCn1nc(-c2nc(C#N)c(C#N)nc2-c2ccccc2)ccc1=O [Example 11, 5-(1-Ethyl-6-oxo-1,6-dihydro-3-pyridazinyl)-6-phenyl-2,3-pyrazinedicarbonitrile]",melting point,201 to 203 °C
"CCn1nc(-c2nc(C#N)c(NCc3ccc(OC)cc3)nc2-c2ccccc2)ccc1=O [Example 12, 6-(1-Ethyl-6-oxo-1,6-dihydro-3-pyridazinyl)-3-[(4-methoxybenzyl)amino]-5-phenyl-2-pyrazinecarbonitrile]",melting point,165.5 to 167.5 °C
"CCn1nc(-c2nc(C#N)c(N)nc2-c2ccccc2)ccc1=O [Example 13, 3-Amino-6-(1-ethyl-6-oxo-1,6-dihydro-3-pyridazinyl)-5-phenyl-2-pyrazinecarbonitrile]",melting point,> 250 °C
"CCn1nc(-c2nc(C(N)=O)c(N)nc2-c2ccccc2)ccc1=O [Example 14, 3-Amino-6-(1-ethyl-6-oxo-1,6-dihydro-3-pyridazinyl)-5-phenyl-2-pyrazinecarboxamide]",melting point,> 250 °C
"Cn1nc(-c2nc(C#N)c(C#N)nc2-c2ccccc2)ccc1=O [Example 15, 5-(1-Methyl-6-oxo-1,6-dihydro-3-pyridazinyl)-6-phenyl-2,3-pyrazinedicarbonitrile]",melting point,210 to 212 °C
"COc1ccc(CNc2nc(-c3ccccc3)c(-c3ccc(=O)n(C)n3)nc2C#N)cc1 [Example 16, 3-[(4-Methoxybenzyl)amino]-6-(1-methyl-6-oxo-1,6-dihydro-3-pyridazinyl)-5-phenyl-2-pyrazinecarbonitrile]",melting point,166.5 to 168 °C
"Cn1nc(-c2nc(C(N)=O)c(N)nc2-c2ccccc2)ccc1=O [Example 18, 3-Amino-6-(1-methyl-6-oxo-1,6-dihydro-3-pyridazinyl)-5-phenyl-2-pyrazinecarboxamide]",melting point,> 250 °C
"Cn1nc(-c2nc(C(=O)O)c(N)nc2-c2ccccc2)ccc1=O [Example 19, 3-Amino-6-(1-methyl-6-oxo-1,6-dihydro-3-pyridazinyl)-5-phenyl-2-pyrazinecarboxylic acid]",melting point,238 °C (dec.)
"Cn1nc(-c2ncc(N)nc2-c2ccccc2)ccc1=O [Example 20, 6-(5-Amino-3-phenyl-2-pyrazinyl)-2-methyl-3(2H)-pyridazinone]",melting point,202 to 204 °C
"CC(C)n1nc(-c2nc(N)c(C#N)nc2-c2ccccc2)ccc1=O [Example 21, 3-Amino-5-(1-isopropyl-6-oxo-1,6-dihydro-3-pyridazinyl)-6-phenyl-2-pyrazinecarbonitrile]",melting point,238 to 241 °C
"COc1nc(-c2ccccc2)c(-c2ccc(=O)n(C(C)C)n2)nc1C#N [Example 22, 6-(1-isopropyl-6-oxo-1,6-dihydro-3-pyridazinyl)-3-methoxy-5-phenyl-2-pyrazinecarbonitrile]",melting point,170 to 172 °C
"CC(C)n1nc(-c2nc(C#N)c(C(N)=O)nc2-c2ccccc2)ccc1=O [Example 23, 3-Cyano-5-(1-isopropyl-6-oxo-1,6-dihydro-3-pyridazinyl)-6-phenyl-2-pyrazinecarboxamide]",melting point,> 250 °C
"CC(C)n1nc(-c2nc(C(N)=O)c(C#N)nc2-c2ccccc2)ccc1=O [Example 23, 3-Cyano-6-(1-isopropyl-6-oxo-1,6-dihydro-3-pyridazinyl)-5-phenyl-2-pyrazinecarboxamide]",melting point,195 to 197 °C
"COC(=O)c1nc(-c2ccc(=O)n(C(C)C)n2)c(-c2ccccc2)nc1OC [Example 24, Methyl 6-(1-isopropyl-6-oxo-1,6-dihydro-3-pyridazinyl)-3-methoxy-5-phenyl-2-pyrazinecarboxylate]",melting point,170 to 171 °C
"CC(C)n1nc(-c2nc(C#N)c(NC=O)nc2-c2ccccc2)ccc1=O [Example 25, [3-Cyano-5-(1-isopropyl-6-oxo-1,6-dihydro-3-pyridazinyl)-6-phenyl-2-pyrazinyl]formamide]",melting point,198 to 200 °C
"CC(C)n1nc(-c2nc(NC=O)c(C#N)nc2-c2ccccc2)ccc1=O [Example 25, [3-Cyano-6-(1-isopropyl-6-oxo-1,6-dihydro-3-pyridazinyl)-5-phenyl-2-pyrazinyl]formamide]",melting point,206 to 208 °C
"CC(C)n1nc(-c2nc(C(N)=S)c(N)nc2-c2ccccc2)ccc1=O [Example 26, 3-amino-6-(1-isopropyl-6-oxo-1,6-dihydro-3-pyridazinyl)-5-phenyl-2-pyrazinecarbothioamide]",melting point,> 250 °C
"Cc1csc(-c2nc(-c3ccc(=O)n(C(C)C)n3)c(-c3ccccc3)nc2N)n1 [Example 27, 6-[5-amino-6-(4-methyl-thiazol-2-yl)-3-phenyl-2-pyrazinyl]-2-isopropyl-3(2H)-pyridazinone]",melting point,238 to 240 °C
"CC(C)n1nc(-c2nc(-c3nc(-c4ccccc4)cs3)c(N)nc2-c2ccccc2)ccc1=O [Example 28, 6-[5-Amino-3-phenyl-6-(4-phenyl-thiazol-2-yl)-2-pyrazinyl]-2-isopropyl-3(2H)-pyridazinone]",melting point,240 to 242 °C
"CC(C)n1nc(-c2nc(N)c(C(N)=O)nc2-c2ccccc2)ccc1=O [Example 29, 3-Amino-5-(1-isopropyl-6-oxo-1,6-dihydro-3-pyridazinyl)-6-phenyl-2-pyrazinecarboxamide]",melting point,217 to 220 °C
"COc1ccc(CNc2nc(-c3ccccc3)c(-c3ccc(=O)n(C(C)C)n3)nc2C(=O)O)cc1 [Example 46, 6-(1-isopropyl-6-oxo-1,6-dihydro-3-pyridazinyl)-3-[(4-methoxybenzyl)amino]-5-phenyl-2-pyrazinecarboxylic acid]",melting point,216.5 to 217 °C
"COc1ccc(CNc2nc(-c3ccccc3)c(-c3ccc(=O)n(C(C)C)n3)nc2C#N)cc1 [Example 47, 6-(1-isopropyl-6-oxo-1,6-dihydro-3-pyridazinyl)-3-[(4-methoxybenzyl)amino]-5-phenyl-2-pyrazinecarbonitrile]",melting point,89 to 93 °C
"COc1ccc(CNc2cnc(-c3ccc(=O)n(C(C)C)n3)c(-c3ccccc3)n2)cc1 [Example 49, 2-isopropyl-6-{5-[(4-methoxybenzyl)amino]-3-phenyl-2-pyrazinyl}-3(2H)-pyridazinone]",melting point,138 to 140 °C
"COc1ccc(CNc2cnc(-c3ccccc3)c(-c3ccc(=O)n(C(C)C)n3)n2)cc1 [Example 49, 2-isopropyl-6-{6-[(4-methoxybenzyl)amino]-3-phenyl-2-pyrazinyl}-3(2H)-pyridazinone]",melting point,173 to 174 °C
"CC(C)n1nc(-c2nc(N)cnc2-c2ccccc2)ccc1=O [Example 50, 6-(6-amino-3-phenyl-2-pyrazinyl)-2-isopropyl-3(2H)-pyridazinone]",melting point,214 to 217 °C
"COc1ccc(CN(Cc2ccc(OC)cc2)c2nc(-c3ccccc3)c(-c3ccc(=O)n(C(C)C)n3)nc2C#N)cc1 [Example 51, 3-[bis(4-methoxybenzyl)amino]-6-(1-isopropyl-6-oxo-1,6-dihydro-3-pyridazinyl)-5-phenyl-2-pyrazinecarbonitrile]",melting point,207 to 209 °C
"COc1ccc(CN(Cc2ccc(OC)cc2)c2nc(-c3ccccc3)c(-c3ccc(=O)n(C(C)C)n3)nc2C(N)=O)cc1 [Example 52, 3-[bis(4-methoxybenzyl)amino]-6-(1-isopropyl-6-oxo-1,6-dihydro-3-pyridazinyl)-5-phenyl-2-pyrazinecarboxamide]",melting point,120 to 122.5 °C
"CC(C)n1nc(-c2nc(Br)c(N)nc2-c2ccccc2)ccc1=O [Example 53, 6-(5-amino-6-bromo-3-phenyl-2-pyrazinyl)-2-isopropyl-3(2H)-pyridazinone]",melting point,204 to 206 °C
"CSc1nc(-c2ccc(=O)n(C(C)C)n2)c(-c2ccccc2)nc1N [Example 54, 6-[5-amino-6-(methylthio)-3-phenyl-2-pyrazinyl]-2-isopropyl-3(2H)-pyridazinone]",melting point,211 to 214 °C
"CC(C)n1nc(-c2nc([S+](C)[O-])c(N)nc2-c2ccccc2)ccc1=O (stereo not shown) [Example 55, 6-[5-amino-6-(methylsulfinyl)-3-phenyl-2-pyrazinyl]-2-isopropyl-3(2H)-pyridazinone]",melting point,225 to 227 °C
